Measured values taken from US20240415819A1, “MACROCYCLIC COMPOUNDS AS PROTEASOME SUBUNIT BETA TYPE-5 INHIBITORS” (Lead Discovery Center GmbH, priority 2021, published 2024).
pIC50: −log10 of the molar value.

Experiments:
[1] = molecular target: T1, β5 subunit of the human constitutive proteasome (CPS) (Homo sapiens, UniProt P28074); experiment: β5 inhibition assay, human constitutive proteasome (Suc-LLVY-AMC); format: biochemical; conditions: IC50 class, Suc-LLVY-AMC substrate
T1 construct: purchased Boston Biochem E-360
Method: The enzymatic activity of the β5 subunit of the human constitutive proteasome (CPS) is analyzed. In another assay, which differs from the assay of the human constitutive proteasome only in using the human immunoproteasome (IPS) the enzymatic activity of the β5 subunit of the human immunoproteasome (IPS) is analyzed. […] Inhibition is indicated as IC50 [nM] (“-”=not measured).

[2] = system: HT-29 cells; experiment: CellTiter-Glo luminescent cell viability assay with HT-29 cells (72h incubation); format: cell-based, human; conditions: Homo sapiens, HT-29, HT29 cells, read-out: CTG HT29
How it was run: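 Viability read as CellTiter-Glo luminescence after 72 h compound exposure, with 10 μM staurosporine and DMSO as control wells. Seeding 400 cells per well, compound added 24 h post-plating; IC50 from curve fitting.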

[3] = system: hPMBC; experiment: Chymotrypsin-like ProteasomeGlo assay in hPBMC; format: cell-based; conditions: Homo sapiens; read-out: Pglo hPBMC
How it was run: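 IC50 derived from luminescent chymotrypsin-like proteasome activity (Suc-LLVY-Glo substrate plus luciferin detection reagent). Measured after 105 min compound exposure at 37 °C, 5% CO2. Cells were human B cells purified from buffy-coat PBMC.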

| pIC50 [1] | pIC50 [2] | pIC50 [3] | Compound |
| --- | --- | --- | --- |
| > 7.00 | > 7.00 | > 7.00 | Cc1ccc2cc1CNC(=O)[C@H](CCc1ccccc1)NC(=O)[C@@H](NC(=O)C(C)c1ccc(N)cc1)CC(=O)N1CCCC(CCO2)C1 (stereo partly drawn) [Compound 309, 2-(4-aminophenyl)-N-((9S,12S)-5^4-methyl-8,11,14-trioxo-9-phenethyl-4-oxa-7,10-diaza-1(3,1)-piperidina-5(1,3)-benzenacyclotetradecaphane-12-yl)propanamide] |
| > 7.00 | > 7.00 | > 7.00 | Cc1ccc2cc1CNC(=O)[C@@H](CCc1ccccc1)NC(=O)[C@H](NC(=O)C(C)(C)CS)CC(=O)N1CCCC(CCO2)C1 (stereo partly drawn) [Compound 348, 3-mercapto-2,2-dimethyl-N-((9S,12S)-5^4-methyl-8,11,14-trioxo-9-phenethyl-4-oxa-7,10-diaza-1(3,1)-piperidina-5(1,3)-benzenacyclotetradecaphane-12-yl)propanamide] |
| > 7.00 | > 7.00 | 6.30 to 7.00 | Cc1ccc2cc1CNC(=O)[C@H](CCc1ccccc1)NC(=O)[C@@H](NC(=O)CC(C)(C)C)CC(=O)N1CCCC(CCO2)C1 (stereo partly drawn) [Compound 28, 3,3-dimethyl-N-((9S,12S)-5^4-methyl-8,11,14-trioxo-9-phenethyl-4-oxa-7,10-diaza-1(3,1)-piperidina-5(1,3)-benzenacyclotetradecaphane-12-yl)butanamide] |
| > 7.00 | 6.30 to 7.00 | 6.00 to 6.30 | Cc1ccc2cc1CNC(=O)[C@H](CCc1ccccc1)NC(=O)[C@@H](NC(=O)OCc1ccccc1)CCCC(=O)NCCCCO2 [Compound 322, benzyl ((12S,15S)-1^4-methyl-8,13, 16-trioxo-15-phenethyl-2-oxa-7,14,17-triaza-1(1,3)-benzenacyclooctadecaphane-12-yl)carbamate] |
| > 7.00 | > 7.00 | > 7.00 | Cc1ccc2cc1CNC(=O)[C@H](CCc1ccccc1)NC(=O)[C@@H](NC(=O)OCc1ccccc1)CC(=O)N1CCCC(CCO2)C1 (stereo partly drawn) [Compound 7, benzyl ((9S,12S)-5^4-methyl-8,11,14-trioxo-9-phenethyl-4-oxa-7,10-diaza-1(3,1)-piperidina-5(1,3)-benzenacyclotetradecaphane-12-yl)carbamate] |
| > 7.00 | > 7.00 | > 7.00 | Cc1ccc2cc1CNC(=O)C(CCc1ccc(C3(C)COC3)cc1)NC(=O)[C@@H](NC(=O)OCc1ccccc1)CC(=O)N1CCCC(CCO2)C1 (stereo partly drawn) [Compound 510, benzyl ((12S)-5^4-methyl-9-(4-(3-methyloxetan-3-yl)phenethyl)-8,11,14-trioxo-4-oxa-7,10-diaza-1(3,1)-piperidina-5(1,3)-benzenacyclotetradecaphane-12-yl)carbamate] |
| > 7.00 | > 7.00 | > 7.00 | CC(=O)N[C@H]1CC(=O)N2CCCC(CCOc3ccc(C)c(c3)CNC(=O)C(Cc3ccccc3)NC1=O)C2 (stereo partly drawn) [Compound 558, N-((12S)-9-benzyl-5^4-methyl-8,11,14-trioxo-4-oxa-7,10-diaza-1(3,1)-piperidina-5(1,3)-benzenacyclotetradecaphane-12-yl)acetamide] |
| > 7.00 | > 7.00 | > 7.00 | CC(=O)N[C@H]1CC(=O)N2CCCC(CCOc3ccc(C)c(c3)CNC(=O)C(c3cnn(-c4ccccc4)c3)NC1=O)C2 (stereo partly drawn) [Compound 559, N-((12S)-5^4-methyl-8,11,14-trioxo-9-(1-phenyl-1H-pyrazol-4-yl)-4-oxa-7,10-diaza-1(3,1)-piperidina-5(1,3)-benzenacyclotetradecaphane-12-yl)acetamide] |
| > 7.00 | > 7.00 | 6.30 to 7.00 | CC(=O)N[C@H]1CC(=O)N2CCCC(CCOc3ccc(C)c(c3)CNC(=O)C(c3ccc4ncccc4c3)NC1=O)C2 (stereo partly drawn) [Compound 554, N-((12S)-5^4-methyl-8,11,14-trioxo-9-(quinolin-6-yl)-4-oxa-7,10-diaza-1(3,1)-piperidina-5(1,3)-benzenacyclotetradecaphane-12-yl)acetamide] |

The next lines start with the molecule.

| Compound | pIC50 [1] | pIC50 [2] | pIC50 [3] |
| --- | --- | --- | --- |
| CC(=O)N[C@H]1CC(=O)N2CCCC(CCOc3ccc(C)c(c3)CNC(=O)C(c3cnn(C)c3)NC1=O)C2 (stereo partly drawn) [Compound 552, N-((12S)-5^4-methyl-9-(1-methyl-1H-pyrazol-4-yl)-8,11,14-trioxo-4-oxa-7,10-diaza-1(3,1)-piperidina-5(1,3)-benzenacyclotetradecaphane-12-yl)acetamide] | > 7.00 | > 7.00 | > 7.00 |
| CC(=O)N[C@H]1CC(=O)N2CCCC(CCOc3ccc(C)c(c3)CNC(=O)C(c3cnn(CCC(=O)O)c3)NC1=O)C2 (stereo partly drawn) [Compound 567, 3-(4-((12S)-12-acetamido-5^4-methyl-8,11,14-trioxo-4-oxa-7,10-diaza-1(3,1)-piperidina-5(1,3)-benzenacyclotetradecaphane-9-yl)-1H-pyrazol-1-yl)propanoic acid] | > 7.00 | 6.30 to 7.00 | > 7.00 |
| CC(=O)N[C@H]1CC(=O)N2CCCC(CCOc3cccc(c3)CNC(=O)[C@H](CCc3ccccc3)NC1=O)C2 (stereo partly drawn) [Compound 364, N-((9S,12S)-8,11,14-trioxo-9-phenethyl-4-oxa-7,10-diaza-1(3,1)-piperidina-5(1,3)-benzenacyclotetradecaphane-12-yl)acetamide] | > 7.00 | > 7.00 | > 7.00 |
| Cc1ccc2cc1CNC(=O)C(c1cnn(C)c1)NC(=O)[C@@H](NC(=O)C1CCCc3ccccc31)CC(=O)N1CCCC(CCO2)C1 (stereo partly drawn) [Compound 360, N-((12S)-5^4-methyl-9-(1-methyl-1H-pyrazol-4-yl)-8,11,14-trioxo-4-oxa-7,10-diaza-1(3,1)-piperidina-5(1,3)-benzenacyclotetradecaphane-12-yl)-1,2,3,4-tetrahydronaphthalene-1-carboxamide] | > 7.00 | > 7.00 | > 7.00 |
| CC(=O)c1ccc(CC(=O)N[C@H]2CC(=O)N3CCCC(CCOc4ccc(C)c(c4)CNC(=O)[C@H](CCc4ccccc4)NC2=O)C3)cc1 (stereo partly drawn) [Compound 341, 2-(4-acetylphenyl)-N-((9S,12S)-54-methyl-8,11,14-trioxo-9-phenethyl-4-oxa-7,10-diaza-1(3,1)-piperidina-5(1,3)-benzenacyclotetradecaphane-12-yl)acetamide] | > 7.00 | > 7.00 | > 7.00 |
| Cc1ccc2cc1CNC(=O)C(CCc1ccncc1)NC(=O)[C@@H](NC(=O)Cc1ccc(N)cc1F)CC(=O)N1CCCC(CCO2)C1 (stereo partly drawn) [Compound 344, 2-(4-amino-2-fluorophenyl)-N-((12S)-5^4-methyl-8,11,14-trioxo-9-(2-(pyridin-4-yl)ethyl)-4-oxa-7,10-diaza-1(3,1)-piperidina-5(1,3)-benzenacyclotetradecaphane-12-yl)acetamide] | > 7.00 | > 7.00 | > 7.00 |
| Cc1ccc2cc1CNC(=O)[C@H](CCc1ccccc1)NC(=O)[C@@H](NC(=O)CC1=NN(c3ccccc3)C(=O)C1)CC(=O)N1CCCC(CCO2)C1 (stereo partly drawn) [Compound 334, N-((9S,12S)-5^4-methyl-8,11,14-trioxo-9-phenethyl-4-oxa-7,10-diaza-1(3,1)-piperidina-5(1,3)-benzenacyclotetradecaphane-12-yl)-2-(5-oxo-1-phenyl-4,5-dihydro-1H-pyrazol-3-yl)acetamide] | > 7.00 | > 7.00 | 6.30 to 7.00 |
| Cc1ccc2cc1CNC(=O)[C@H](CCc1ccccc1)NC(=O)[C@@H](NC(=O)Cc1cc(Cl)c(N)c(Cl)c1)CC(=O)N1CCCC(CCO2)C1 (stereo partly drawn) [Compound 320, 2-(4-amino-3,5-dichlorophenyl)-N-((9S,12S)-5^4-methyl-8,11,14-trioxo-9-phenethyl-4-oxa-7,10-diaza-1(3,1)-piperidina-5(1,3)-benzenacyclotetradecaphane-12-yl)acetamide] | > 7.00 | > 7.00 | > 7.00 |
| CO[C@@H](C(=O)N[C@H]1CC(=O)N2CCCC(CCOc3ccc(C)c(c3)CNC(=O)C(c3cnn(C)c3)NC1=O)C2)c1ccccc1 (stereo partly drawn) [Compound 361, (2R)-2-methoxy-N-((12S)-5^4-methyl-9-(1-methyl-1H-pyrazol-4-yl)-8,11,14-trioxo-4-oxa-7,10-diaza-1(3,1)-piperidina-5(1,3)-benzenacyclotetradecaphane-12-yl)-2-phenylacetamide] | > 7.00 | > 7.00 | > 7.00 |
